Measurements published in patent US20090258381A1, “Methods for Determining the Cleavability of Substrates” (priority 2005, published 2009).

What was measured:
trypsin [1] = experiment: Inhibition of enzymatic conversion of GPARLA by trypsin; type: biochemical; conditions: degradation of substrate GPARLA by trypsin; geometric mean and standard deviation of a quadruplicate measurement; read-out: inhibition constant
Method: (§1) Inhibition constants were measured by carrying out two parallel enzyme dilutions in each case. One enzyme dilution was carried out in the presence, and the other enzyme dilution in the absence, of the protease inhibitor aprotinin. […] The peptide chosen for the trypsin enzyme had the amino acid sequence GPARLA (number 42 from example 1) and the peptide chosen for the chymotrypsin enzyme had the sequence GVPFGP (number 43 from example 1). […] Then, to carry out the proteolytic cleavage in the presence of an inhibitor, 7.5 μl of an aprotinin solution (1 μg/ml for trypsin and 1 mg/ml for chymotrypsin) were put into the first well, and 5 μl of the aprotinin solution (1 μg/ml for trypsin and 1 mg/ml for chymotrypsin) were put into each of the next 10 wells. […] No enzyme solution was put in the last peptide-containing well.
(§2) The inhibition constant of aprotinin can be calculated by comparing the catalytic efficiency (kcat/KM) in the presence and in the absence of aprotinin. kcat/KM values are calculated according to equation (6) and the relationship obtained (equation (17)):
(§3) (kcat/KM)0/(kcat/KM)=1+[I]total/Ki

chymotrypsin = experiment: Inhibition of enzymatic conversion of GVPFGP by chymotrypsin; type: biochemical; conditions: degradation of GVPFGP by chymotrypsin; geometric mean and standard deviation of a quadruplicate measurement; read-out: inhibition constant
Method: as §1, §2, §3

[2] = Half-lives of peptides in murine intestinal fluid (intestinal enzyme solution); conditions: relates to undiluted murine intestinal fluid, 90 min incubation in dilutions, 37° C.
Method: Anesthetized female Balb/c mice were sacrificed by cervical dislocation and their abdominal wall was opened. The small bowel was clamped with a hemostat behind the stomach outlet (proximal end) and severed from the stomach. The small bowel was exposed and clamped with a second hemostat near the posterior (distal) end. The bowel was severed a second time behind this point.
The subsequent preparation steps to obtain the digestive secretions were performed on an ice-cooled surface. The small bowel closed on both sides was agitated in ice-cold simulated intestinal fluid (SIF; 8 mM phosphate, pH 7.2, with 4.6 mM K^+, 111.3 mM Na^+, 101.5 mM Cl) according to Lockwood and Randall (1949), which was intended to imitate as accurately as possible the physiological conditions of the small bowel in terms of ion concentrations, in order to remove external contaminants and keep it moist. To obtain the digestive secretions present in the small bowel, the distal end of the bowel was suspended in a reaction vessel and the hemostat attached on this side was removed. A lateral cut was then made at the proximal end of the bowel so that a syringe provided with a button cannula could be introduced into the bowel which was held without tension. The bowel contents were washed out in three steps. The washing solutions were successively injected slowly into the bowel and collected at the lower end of the bowel separately in three reaction vessels. Firstly, the bowel was rinsed with a volume of 6 ml of perfluorohexane, an inert liquid which is immiscible with water, and the perfluorohexane was driven out with 4 ml of air. Then a mixture of 2.25 ml of perfluorohexane and 0.25 ml of SIF which contained the nonphysiological ions Li^+ and Cs^+, was used for washing in order to be able subsequently to determine the dilution by spectroscopic methods. […] In a third washing step, 5 ml of SIF without tracer were injected. Solid constituents of the bowel contents and the perfluorohexane were separated by centrifugation from the aqueous phase, in which the digestive enzymes were present. An inductively coupled plasma mass spectrometry (ICP-MS) was used to determine the concentrations of Li^+ and Cs^+ in the intestinal enzyme solution, and the dilution factor was calculated taking the volume of the washing buffer into account. The dilution of the third lavage was ascertained via endogenous markers of intestinal secretion (e.g. enzymic activities, immunoglobulins), in comparison with the first two intestinal enzyme solutions. The enzyme solutions were stored after freezing with liquid nitrogen at −70° C.
On a polypropylene microtiter plate having the same format as the coated polystyrene microtiter plate (see example 4), 7.5 μl of peptide solution were introduced into the first well of a row, and 5 μl of the peptide solution were introduced into each of the next 10 wells. The last well remained empty and was intended to serve as background correction. Then, simulated intestinal fluid (SIF) with the addition of 0.005% Tween 20 and 1 mM CaCl (SIFT-CaCl) was put in all the wells. The well with 7.5 μl of peptide solution received 60 μl of SIFT-CaCl, and the wells with 5 μl of peptide solution each received 45 μl of SIFT-CaCl. The empty well for the background correction received 50 μl of SIFT-CaCl. The enzymatic reaction was then started by adding 7.5 μl of a dilution of an intestinal enzyme solution (obtained as in example 2) to the well with 7.5 μl of peptide solution and 60 μl of SIFT-CaCl. 25 μl of this mixture were immediately pipetted into the next well and mixed, and this step was repeated to result in a serial 1:3 dilution of the intestinal enzyme solution over a total of 10 wells. No enzyme solution was put into the last peptide-containing well. Each well thus contained a volume of 50 μl after the serial dilution.

trypsin [3] = conditions: cleaved with trypsin; FRET-based methods (Grahn et al., 1998); cited from earlier work

Substance: aprotinin
- Ki (trypsin [1]): 1 nM
- Ki (chymotrypsin): 480 nM

Substance: GSAEAGVDAA
- t1/2 ([2]; 10-mer peptides): 3.1271 s

Substance: VVGSAEAGVD
- t1/2 ([2]; 10-mer peptides): 4.0618 s

Substance: FGDSIEAQCGTSVNVH
- t1/2 ([2]; 16-mer peptides): 1.3951 s

Substance: FDKLPGFGDSIEAQCG
- t1/2 ([2]; 16-mer peptides): 5.6930 s

Substance: PGFGDSIEAQCGTSVN
- t1/2 ([2]; 16-mer peptides): 5.0348 s

Substance: KLPGFGDSIEAQCGTS
- t1/2 ([2]; 16-mer peptides): 6.4211 s

Substance: GPARLAIG [GPARLAIG variant of the trypsin substrate, measured with FRET-based methods (Grahn et al., 1998)]
- catalytic efficiency (trypsin [3]): 1.2e+06 M⁻¹ s⁻¹
